# Data reported in patent publication US20240099299A1, “ANTIMICROBIAL COMPOSITIONS AND METHODS FOR THEIR PREPARATION AND USE IN TREATING PLANT DISEASES” (priority 2021, published 2024).
# Counter-ions that a name gives are not always drawn.
# Assays:
# [1] = Visual monitoring of homogeneity of 11,000 ppm OTC test solutions in pH 2 water; type: physicochemical; settings: 11,000 ppm in pH 2 water, 10× magnification, immediately upon preparation at 75° F.; HCl
# Protocol: Next, OTC solutions were prepared by first reducing the pH of water to pH 2 using hydrochloric acid. 11.0 g of PG-OTC (>95%) and non-sterile, nS-nPG-OTC (putatively 95%) each were dissolved into 1.0 L of the pH 2 water to generate 11,000 ppm test solutions, which then were monitored visually at 10× magnification. […] To elucidate the nonhomogeneous nature of the nS-nPG-OTC solutions, visualization was performed at 60× magnification, as is shown in FIG. 8 and wherein an abundance of actively growing needle-like crystals having lengths of approximately 10-250 μm are visible. These needle-like crystals likely comprise OTC and/or OTC and one or more impurities.
# Valencia orange tree = experiment: Study 1: comparison of injection and spray applications, tree vigor rating; type: in vivo; settings: Study 1 conclusion
# Protocol: Tree Vigor Ratings: 1=Lowest Vigor; 5=Highest Vigor. LSD stands for least significant difference and C.V. stands for Coefficient of Variance.
# For Treatment 1, a 5,500 ppm solution of PG-OTC was prepared using distilled water. This solution then was acidified to pH 2 using hydrochloric acid. […] For Treatment 2, 2.5 g of PG-OTC was dissolved in 2 gallons of water. The resultant solution was sprayed onto the foliage of the trees at a rate of 1 quart (0.3125 g OTC·HCl) per tree (n=9). Vigor ratings were performed 60 days after application of treatments.
# [2] = OTC residues in fruit after injection; type: in vivo; settings: when using PG-OTC solutions
# [3] = Uptake (injection time) of OTC solutions injected into rootstock of Valencia citrus trees; type: in vivo; settings: for Absorption of solution by trees: overall conclusions from functional testing, nS-nPG-OTC: after the first 50 mL
# Protocol: The test article solutions (11,000 ppm) were prepared as above and were fluidly pressurized into latex injection devices (FLexInect™, TJ Biotech LLC, Buffalo, SD) and then were injected into rootstock of uniform, commercially grown, Valencia citrus trees. The injection devices were monitored to measure uptake rates of the solutions.
# Table 2 presents the results of Trial 1, which used trees (n=10) having trunk diameters between 2.125″ and 3.00″.
# Table 3 presents the results of Trial 2, which used trees (n=10) having trunk diameters between 3.00″ and 4.25″. 100 mL of the test solutions were injected with the ambient temperature between 80° F. and 90° F.
# Table 4 presents the results of Trial 3, which used trees (n=30) having trunk diameters between 3.00″ and 4.25″. Up to 100 mL of the test solutions were injected with the ambient temperature <70° F., at which temperatures transpiration in the vascular system is reduced. In this trial, the injections were stopped at 120 minutes regardless of if injections were complete.
SMILES,Homogeneity of solution [1],Effectiveness of trunk injection versus application of unacidified solution to foliage by spraying (Valencia orange tree),Residues in the fruit (within tolerance) [2] [PPB],"Time (Minutes) of injection/uptake ([3]; Trial 1: 50 mL of 11,000 ppm solution, trunk diameter 2.125-3.00 in, 80-90° F., n=10, HCl) [b Minutes]","Time (Minutes) of injection/uptake ([3]; Trial 2: 100 mL of 11,000 ppm solution, trunk diameter 3.00-4.25 in, 80-90° F., n=10, HCl) [b Minutes]","Time (Minutes) of injection/uptake ([3]; Trial 3: up to 100 mL of 11,000 ppm solution, trunk diameter 3.00-4.25 in, <70° F., stopped at 120 minutes, n=30, HCl) [b Minutes]",Absorption of solution by trees ([3]; HCl),"Time (Minutes) of injection/uptake ([3]; Trial 1: 50 mL of 11,000 ppm solution, trunk diameter 2.125-3.00 in, 80-90° F., n=10) [a Minutes]","Time (Minutes) of injection/uptake ([3]; Trial 2: 100 mL of 11,000 ppm solution, trunk diameter 3.00-4.25 in, 80-90° F., n=10) [a Minutes]","Time (Minutes) of injection/uptake ([3]; Trial 3: up to 100 mL of 11,000 ppm solution, trunk diameter 3.00-4.25 in, <70° F., stopped at 120 minutes, n=30) [a Minutes]",Absorption of solution by trees [3]
"CN(C)[C@@H]1C(O)=C(C(N)=O)C(=O)[C@@]2(O)C(O)=C3C(=O)c4c(O)cccc4[C@@](C)(O)[C@H]3[C@H](O)[C@@H]12 [PG-OTC, Oxytetracycline HCl]",essentially homogeneous,more effective,≤ 10,8.4,18.2,81.1,readily absorbed,,,,
"CN(C)[C@@H]1C(O)=C(C(N)=O)C(=O)[C@@]2(O)C(O)=C3C(=O)c4c(O)cccc4[C@@](C)(O)[C@H]3[C@H](O)[C@@H]12 [nS-nPG-OTC, Oxytetracycline]",,,,,,,,15.3,134.7,117.33,marked decrease in absorption rate
